Test results published in patent US20160223554A1, “METHODS FOR DIAGNOSIS, PROGNOSIS AND METHODS OF TREATMENT” (priority 2011, published 2016).

Experiments:
AML blasts [1] = experiment: SCNP phospho-flow signaling nodes in AML PBMC (Example 2, Study No. 1); format: cell-based, human; details: for Mean Value of CRs: CR patients; for Mean Value of CRs / Mean Value of NRs: Study No. 1; for Mean Value of NRs: NR patients
Experimental: Frozen cells are thawed in a 37° C. water bath and gently resuspended in the vial and transferred to the 15 mL conical tube. The 15 mL tube is centrifuged at 930 RPM (200×g) for 8 minutes at room temperature. The supernatant is aspirated and the pellet is gently resuspended in 1 mL media A. The cell suspension is filtered through a 70 um cell strainer into a new 15 mL tube. The cell strainer is rinsed with 1 mL media A and another 12 ml of media A into the 15 mL tube. The cells are mixed into an even suspension. A 20 μL aliquot is immediately removed into a 96-well plate containing 180 μL PBS+4% FBS+CD45 Alexa 700+PI to determine cell count and viability post spin. After the determination, the 15 mL tubes are centrifuged at 930 RPM (200×g) for 8 minutes at room temperature. The supernatant is aspirated and the cell pellet is gently resuspended in 4 mL PBS+4 μL Amine Aqua and incubated for 15 min in a 37° C. incubator. 10 mL RPMI+1% FBS is added to the cell suspension and the tube is inverted to mix the cells. The 15 mL tubes are centrifuged at 930 RPM (200×g) for 8 minutes at room temperature. The cells are resuspended in Media A at the desired cell concentration (1.25×10^6/mL). For samples with low numbers of cells (<18.5×10^6), the cells are resuspended in up to 15 mL media. For samples with high numbers of cells (>18.5×10^6), the volume is raised to 10 mL with media A and the desired volume is transferred to a new 15 mL tube, and the cell concentration is adjusted to 1.25×10^6 cells/ml. 1.6 mL of the above cell suspension (concentration at 1.25×10^6 cells/ml) is transferred into wells of a multi-well plate. From this plate, 80 ul is dispensed into each well of a subsequent plate. The plates are covered with a lid (Nunc) and placed in a 37° C. incubator for 2 hours to rest.
A concentration for each stimulant that is five folds more (5×) than the final concentration is prepared using Media A as diluent. 5× stimuli are arrayed into wells of a standard 96 well v-bottom plate that correspond to the wells on the plate with cells to be stimulated.
Adding the stimulant: The cell plate(s) are taken out of the incubator and placed in a 37° C. water bath next to the pipette apparatus. The cell plate is taken from the water bath and gently swirled to resuspend any settled cells. With pipettor, the stimulant is dispensed into the cell plate and vortexed at “7” for 5 seconds. The deep well plate is put back into the water bath.
The plate is covered with foil sealer and incubated in a 37° C. water bath for 10 minutes. The plate is spun for 6 minutes at 2000 rpm at room temperature. The cells are aspirated using a 96 well plate aspirator (VP Scientific). The plate is vortexed to resuspend cell pellets in the residual volume. The pellet is ensured to be dispersed before the Methanol step (see cell permeabilization) or clumping will occur.
Cell Permeabilization: Permeability agent, for example methanol, is added slowly and while the plate is vortexing. To do this, the cell plate is placed on titer plate shaker and made sure it is secure. The plate is set to shake using the highest setting. A pipetter is used to add 0.6 mls of 100% methanol to the plate wells. The plate(s) are put on ice until this step has been completed for all plates. Plates are covered with a foil seal using the plate roller to achieve a tight fit. At this stage the plates can be stored at −80° C.
Cells are thawed if frozen. Cells are pelleted at 2000 rpm 5 minutes. Supernatant is aspirated with vacuum aspirator. Plate is vortexed on a “plate vortex” for 5-10 seconds. Cells are washed with 1 mL FACS buffer. Repeat the spin, aspirate and vortex steps as above. 50 μL of FACS/stain buffer with the desired, previously optimized, antibody cocktail is added to two rows of cells at a time and agitate the plate. The plate is covered and incubated in a shaker for 30 minutes at room temperature (RT). During this incubation, the compensation plate is prepared.

AML blasts [2] = experiment: SCNP signaling and apoptosis nodes in AML BMMC (Example 4, Study No. 2); format: cell-based, human
[3] = Total Phospho metric, Study No. 1, CRp patient included in NR group
[4] = read-out p-Stat1, metric TotalPhospho
[5] = read-out p-Stat3, metric TotalPhospho
[6] = Fold metric, all patients, Study No. 2
[7] = Study No.2, patients less than 60 years old
[8] = Study No.2, patients with De Novo AML
[9] = read-out p-Erk, metric TotalPhospho
[10] = Study No.2, patients age 60 and older
[11] = read-out p-Akt, metric TotalPhospho
[12] = read-out p-CREB, metric TotalPhospho
[13] = TotalPhospho metric, all patients, Study No. 2
[14] = read-out p-Plcγ2, metric TotalPhospho
[15] = Study No.2, patients with Secondary AML
[16] = Fold metric, Study No. 1, CRp patient included in NR group

## IL-10: cytokine modulator
AML blasts [1]; [3]
  Mean Value of CRs, p-Stat3: 0.72
  Mean Value of NRs, p-Stat3: 1.69
AML blasts [1]; [4]
  Mean Value of CRs: 0.20
  Mean Value of NRs: 0.47
AML blasts [1]; [5]
  Mean Value of CRs: 0.82
  Mean Value of NRs: 1.69
AML blasts [2]; [6]
  Mean Value of CRs, p-Stat3: 0.08
  Mean Value of CRs, p-Stat5: 0.09
  Mean Value of NRs, p-Stat3: 0.39
  Mean Value of NRs, p-Stat5: 0.43
AML blasts [2]; [7]
  Mean Value of CRs, p-Stat3 TotalPhospho: 1.67
  Mean Value of NRs, p-Stat3 TotalPhospho: 2.90
AML blasts [2]; [8]
  Mean Value of CRs, p-Stat3 Fold: 0.05
  Mean Value of CRs, p-Stat3 TotalPhospho: 1.63
  Mean Value of CRs, p-Stat5 Fold: 0.0
  Mean Value of NRs, p-Stat3 Fold: 0.45
  Mean Value of NRs, p-Stat3 TotalPhospho: 2.68
  Mean Value of NRs, p-Stat5 Fold: 0.43

## TNFα
AML blasts [1]; [9]
  Mean Value of CRs: 1.25
  Mean Value of NRs: 1.65

## EPO
AML blasts [1]; [3]
  Mean Value of CRs, p-Stat1: 0.17
  Mean Value of CRs, p-Stat3: 0.64
  Mean Value of NRs, p-Stat1: 0.42
  Mean Value of NRs, p-Stat3: 1.23
AML blasts [1]; [4]
  Mean Value of CRs: 0.20
  Mean Value of NRs: 0.42
AML blasts [1]; [5]
  Mean Value of CRs: 0.72
  Mean Value of NRs: 1.23

## OO [H2O2, reference compound]
AML blasts [1]; read-out p-Lck, metric Fold
  Mean Value of CRs: 0.42
  Mean Value of NRs: 0.12
AML blasts [1]; read-out p-SLP 76, metric Fold
  Mean Value of CRs: 1.35
  Mean Value of NRs: 0.08
AML blasts [2]; [6]
  Mean Value of CRs, p-Akt: 0.68
  Mean Value of NRs, p-Akt: 0.91
AML blasts [2]; [10]
  Mean Value of CRs, p-Akt Fold: 0.45
  Mean Value of CRs, p-Akt TotalPhospho: 0.84
  Mean Value of CRs, p-Plcγ2 TotalPhospho: 1.19
  Mean Value of NRs, p-Akt Fold: 0.88
  Mean Value of NRs, p-Akt TotalPhospho: 1.33
  Mean Value of NRs, p-Plcγ2 TotalPhospho: 1.86

## SDF -1α
AML blasts [1]; [11]
  Mean Value of CRs: 0.57
  Mean Value of NRs: 1.04

## IL-6: cytokine modulator
AML blasts [1]; [3]
  Mean Value of CRs, p-CREB: 1.58
  Mean Value of CRs, p-Stat3: 1.08
  Mean Value of NRs, p-CREB: 2.44
  Mean Value of NRs, p-Stat3: 1.81
AML blasts [1]; [12]
  Mean Value of CRs: 1.70
  Mean Value of NRs: 2.43
AML blasts [1]; [5]
  Mean Value of CRs: 1.08
  Mean Value of NRs: 1.84
AML blasts [2]; [6]
  Mean Value of CRs, p-Stat1: −0.01
  Mean Value of CRs, p-Stat3: 0.12
  Mean Value of CRs, p-Stat5: 0.13
  Mean Value of NRs, p-Stat1: 0.26
  Mean Value of NRs, p-Stat3: 1.09
  Mean Value of NRs, p-Stat5: 0.55
AML blasts [2]; [7]
  Mean Value of CRs, p-Stat1 Fold: −0.02
  Mean Value of CRs, p-Stat3 Fold: 0.13
  Mean Value of CRs, p-Stat3 TotalPhospho: 1.77
  Mean Value of CRs, p-Stat5 Fold: 0.11
  Mean Value of NRs, p-Stat1 Fold: 0.3
  Mean Value of NRs, p-Stat3 Fold: 1.67
  Mean Value of NRs, p-Stat3 TotalPhospho: 4.10
  Mean Value of NRs, p-Stat5 Fold: 0.58
AML blasts [2]; [8]
  Mean Value of CRs, p-Stat1 Fold: 0.00
  Mean Value of CRs, p-Stat1 TotalPhospho: 1.06
  Mean Value of CRs, p-Stat3 TotalPhospho: 1.7
  Mean Value of CRs, p-Stat5 Fold: 0.12
  Mean Value of NRs, p-Stat1 Fold: 0.19
  Mean Value of NRs, p-Stat1 TotalPhospho: 1.67
  Mean Value of NRs, p-Stat3 TotalPhospho: 3.22
  Mean Value of NRs, p-Stat5 Fold: 0.47
AML blasts [2]; [13]
  Mean Value of CRs, p-Stat3: 1.76
  Mean Value of NRs, p-Stat3: 2.98

## IL-l0
AML blasts [1]; [3]
  Mean Value of CRs, p-Stat1: 0.17
  Mean Value of NRs, p-Stat1: 0.47

## IGF-1
AML blasts [1]; [3]
  Mean Value of CRs, p-CREB Alexa488: 1.11
  Mean Value of CRs, p-CREB PE: 1.42
  Mean Value of CRs, p-Plcγ2: 1.82
  Mean Value of NRs, p-CREB Alexa488: 1.62
  Mean Value of NRs, p-CREB PE: 2.29
  Mean Value of NRs, p-Plcγ2: 2.76
AML blasts [1]; [12]
  Mean Value of CRs: 1.52
  Mean Value of NRs: 2.29
AML blasts [1]; [14]
  Mean Value of CRs: 1.91
  Mean Value of NRs: 2.76

## CN[C@@H]1C[C@H]2O[C@@](C)([C@@H]1OC)n1c3ccccc3c3c4c(c5c6ccccc6n2c5c31)C(=O)NC4 [Stautospotine]
AML blasts [2]; [7]
  Mean Value of CRs, c-PARP Fold: 3.47
  Mean Value of NRs, c-PARP Fold: 7.06

## COc1cc([C@@H]2c3cc4c(cc3[C@@H](O[C@@H]3O[C@@H]5CO[C@@H](C)O[C@H]5[C@H](O)[C@H]3O)[C@H]3COC(=O)[C@H]23)OCO4)cc(OC)c1O [Etoposide, reference compound]
AML blasts [2]; [6]
  Mean Value of CRs, c-PARP: 0.79
  Mean Value of NRs, c-PARP: 0.25
AML blasts [2]; [7]
  Mean Value of CRs, p-Chk2−,c-PARP+ Quad: 21.17
  Mean Value of NRs, p-Chk2−,c-PARP+ Quad: 9.58
AML blasts [2]; [15]
  Mean Value of CRs, p-Chk2+,c-PARP− Quad: 20.98
  Mean Value of CRs, p-Chk2−,c-PARP+ Quad: 32.71
  Mean Value of NRs, p-Chk2+,c-PARP− Quad: 55.02
  Mean Value of NRs, p-Chk2−,c-PARP+ Quad: 13.24

B1: CD40L (protein, UniProt P29965 113-261, looked up)
CD40 ligand, soluble form: MQKGDQNPQIAAHVISEASSKTTSVLQWAEKGYYTMSNNLVTLENGKQLTVKRQGLYYIYAQVTFCSNREASSQAPFIASLCLKSPGRFERILLRAANTHSSAKPCGQQSIHLGGVFELQPGASVFVNVTDPSQVSHGTGFTSFGLLKL
AML blasts [1]; [3]
  Mean Value of CRs, p-CREB: 1.37
  Mean Value of CRs, p-Erk: 1.18
  Mean Value of NRs, p-CREB: 2.67
  Mean Value of NRs, p-Erk: 1.62
AML blasts [1]; [12]
  Mean Value of CRs: 1.55
  Mean Value of NRs: 2.66
AML blasts [1]; [9]
  Mean Value of CRs: 1.18
  Mean Value of NRs: 1.64

B2: M-CSF (protein, UniProt P09603 33-554, looked up)
Macrophage colony-stimulating …: EEVSEYCSHMIGSGHLQSLQRLIDSQMETSCQITFEFVDQEQLKDPVCYLKKAFLLVQDIMEDTMRFRDNTPNAIAIVQLQELSLRLKSCFTKDYEEHDKACVRTFYETPLQLLEKVKNVFNETKNLLDKDWNIFSKNCNNSFAECSSQDVVTKPDCNCLYPKAIPSSDPASVSPHQPLAPSMAPVAGLTWEDSEGTEGSSLLPGEQPLHTVDPGSAKQRPPRSTCQSFEPPETPVVKDSTIGGSPQPRPSVGAFNPGMEDILDSAMGTNWVPEEASGEASEIPVPQGTELSPSRPGGGSMQTEPARPSNFLSASSPLPASAKGQQPADVTGTALPRVGPVRPTGQDWNHTPQKTDHPSALLRDPPEPGSPRISSLRPQGLSNPSTLSAQPQLSRSHSSGSVLPLGELEGRRSTRDRRSPAEPEGGPASEGAARPLPRFNSVPLTDTGHERQSEGSFSPQLQESVFHLLVPSVILVLLAVGGLLFYRWRRRSHQEPQRADSPLEQPEGSPLTQDDRQVELPV
AML blasts [1]; [16]
  Mean Value of CRs, p-Akt: −0.16
  Mean Value of NRs, p-Akt: 0.05
AML blasts [1]; [3]
  Mean Value of CRs, p-CREB: 1.26
  Mean Value of CRs, p-Plcγ2: 1.79
  Mean Value of NRs, p-CREB: 1.76
  Mean Value of NRs, p-Plcγ2: 2.8
AML blasts [1]; [14]
  Mean Value of CRs: 1.86
  Mean Value of NRs: 2.81
